Reference: patent US10308685B2, “Inhibitory peptides of viral infection” (UNIVERSITY OF TENNESSEE RESEARCH FOUNDATION, priority 2014, dated 2019)
Where a SMILES comes first, the peptide text is derived from it. Where no end group is shown, it is not given here.

Columns and labels:
[1] = target: HCMV expressing luciferase (Towne strain); type: cell-based, Human Cytomegalovirus; details: MRC-5 cells, peptide 30 min prior to virus
Experimental: A recombinant luciferase-expressing Towne strain of HCMV was used for each experiment. To obtain the virus, the virus was cultured in vitro on HFF cells. The virus was titered using a standard plaque assay.
Cells were cultured according to methods known to those of skill in the art. Briefly, human fetal lung fibroblasts (MRC-5, ATCC) were cultured in minimum essential media (MEM, HyClone) supplemented with fetal bovine serum (FBS, HyClone), and L-glutamine. Human foreskin fibroblasts (HFF, ATCC) were cultured in dulbecco's modified eagle medium (DMEM, GE HyClone) supplemented with FBS, L-glutamine and sodium pyruvate. Human aortic endothelial cells were cultured in EGM-2 Bullet Kit (Lonza) supplemented with FBS. Human retinal pigment epithelia cells (ARPE-19) were cultured in DMEM and Hams F12 medium (Lonza) and supplemented with FBS.
Efficacy of viral reduction was measured using a luciferase assay with HCMV expressing luciferase virus. Cells were cultured in a 24-well plate until they reached ˜80% confluency. The cells were washed with phosphate buffered saline (PBS) then treated with peptide. The control cells were treated with PBS supplemented with FBS. After peptide incubation, virus was added (100 RLU for MRC-5, HFF and 1000 RLU for HAEC, ARPE-19) for 1 h. […] After the addition of LAR to the supernatant the luminescence was quantified using a plate reader (BioTek). […]

trypsin = experiment: Proteolytic stability: trypsin incubation, then HCMV luciferase assay on MRC-5 cells; type: in vitro ADME; details: 200 μM peptide, 200 μg/ml trypsin, 37° C., 30 and 60 minutes
Experimental: FIG. 8. Proteolytic stability of p5 and Dp5R. 200 μM of each peptide, CGGY-p5 (SEQ ID NO: 22) and GGGY-Dp5R (SEQ ID NO: 24, D form), was incubated with 200 μg/ml of trypsin for 30 minutes and 60 minutes then added to MRC-5 cells 30 minutes prior to the addition of virus. Data is representative of three separate experiments with three repeats ±SD.
Without wishing to be bound by any particular theory, this increased binding could be due to proteolytic stability of the D-form. Trypsin was thus used to test the proteolytic stability of p5 and Dp5R. More particularly, each peptide was incubated at 37° C. for 30 minutes and 60 minutes with 200 μg/ml of trypsin then added to cells 30 minutes before the addition of virus.

MCMV [2] = type: cell-based, Murine Cytomegalovirus; details: for inhibition of MCMV infection (plaque reduction): 500 μg/ml, mouse embryonic fibroblasts incubated with peptide 30 min prior to virus
Experimental: Murine Cytomegalovirus (MCMV) RM4503 was cultured in vitro in MEF 10.1 cells. The virus stock was titered using plaque assay (described below) and stored at −80° C. Human Cytomegalovirus (HCMV) TB40/E was obtained from (46, 47) and cultures in vitro in HFF cells. The virus stock was titered using plaque assay and stored at −80° C. HSV-1 and HSV-2 were cultured in vitro in VERO cells. The virus stock was titered using plaque assay and stored at −80° C.
Peptides were screened for their ability to reduce viral infection using a plaque reduction assay. Cells were cultured in 12-well (VERO) or 24-well culture plates (MEF 10.1 and HFF). When the cells reached ˜80% confluence the media was removed and the cells washed once with PBS before addition of peptide. As a control, cells were incubated with PBS alone. After a 30 min of incubation with peptide in PBS, the virus was added and incubated for another 90 min (HSV and HCMV) or 60 min (MCMV). Following virus incubation the peptide/virus mixture was removed and replaced with 0.75% carboxy-methyl cellulose (Sigma Aldrich, St. Louis, Mo.)+complete media (CMC) or 0.5% agarose (Lonza, Rockland, Me.) in complete media. The plates were incubated at 37° C. in 5% CO2 for 4 days when plaques began to develop, following which they were stained with Coomassie stain (AMRESCO, Solon, Ohio). Plaques were counted manually and data analyzed using Prism 5.0 (GraphPad Software, La Jolla, Calif.). Data were expressed as % plaques relative to the average number of plaques in the PBS-treated wells.
In the initial screening assays all peptides were tested at a single concentration (500 μg/ml) using a plaque-reduction assay, in which mouse embryonic fibroblasts were incubated with the peptides for 30 min prior to the addition of virus.
In the infectivity assays described above the peptide and virus were co-incubated with the cells. Therefore to ensure the peptide was not directly inactivating the virus, MCMV was incubated with 100 μM (˜20× the IC50) peptide at 37° C. for 1 h, diluted to an ineffective peptide concentration (1 μM) and fibroblast infection rates measured.
To determine at which stage of the MCMV entry cycle the peptide interferes, four different peptide treatment protocols were tested, 1) 30 min. prior to infection (pre-adsorption) 2) simultaneously with virus (during adsorption) 3) after letting the virus adsorb to the cells at 4° C. for lhr (post adsorption) or 4) after allowing the virus to fuse with the cell membrane at 37° C. for lhr (post fusion) (FIG. 3(B)).

MEF 10.1 cells = experiment: Visualization of bound biotinylated peptide on fixed MEF cells (fluorescence); type: binding, Mouse; details: 1.6 μg/mL, streptavidin fluorescence
Experimental: Coverslips with fixed MEF cells prepared, washed in PBS and blocked with 1% BSA/PBS for 5 min. Following a PBS wash the nuclei were stained by using Hoechst (Life Technologies Molecular Probes, Grand Island, N.Y.) 1:100 in H2O— for 30 min at 37° C. Tissues were then blocked using a casein block solution (Scytek) for 5 min, AVIDIN/Biotin blocks (VECTOR, Burlingame, Calif.) for 20 min each at room temperature (RT) followed by a 5 min PBS wash. Biotinylated GGGY-p5+14 (SEQ ID NO: 25) or p5G (control) at 1.6 μg/mL in PBS was added and the tissues incubated overnight at 4° C. Following a PBS wash Alexa Fluor 594-conjugated streptavidin (Molecular Probes) was added at a 1:200 dilution in PBS for lhr at RT. Cells were then permeabilized by addition of 0.2% Triton X-100 (Sigma) in PBS for 10 min at RT and washed with a solution of 1% BSA in PBS for 30 min. The cells were then stained with Alexa Fluor 488-conjugated phalloidin (Molecular Probes) 1:100 dilution of stock in 1% BSA/PBS, for 45 min. at RT to visualize cytoskeleton. Slides were cover-slipped using a fluorescent mounting medium (Dako, Carpinteria, Calif.) to minimize photobleaching.

[3] = mouse, in vivo; cited from earlier work
MCMV [4] = experiment: Interference of peptide mediated reduction by heparin (MCMV plaque reduction); type: cell-based, Murine Cytomegalovirus
Experimental: Peptide GGGY-p5+14 (SEQ ID NO: 25) (at 100 μM) was pre-incubated with heparin sodium salt (Acros Organics, NJ) at different concentrations for 1 h at 37° C. Following which the heparin/peptide mix was added to the cells and incubated for 30 min at 37° C. Following the incubation, the supernatant was aspirated and cells washed once with PBS to remove unbound/excess heparin or peptide. The cells were subsequently infected with ˜100 pfu/well of MCMV. To test whether heparin treatment of cells interferes with virus infection, MEF 10.1 cells in a 24 well dish were pre-incubated with different concentrations of heparin for 1 hour and washed as described above. Following the pre-incubation infection was initiated as mentioned above. Finally to test the effect of heparin treatment on the infectivity of virus, MCMV was incubated with different concentration of heparin for lhr before infecting cells. For all these treatments, the virus was removed lhr post infection and cells overlaid with CMC. Plates were incubated for 4 days before staining and counting the plaques. Plaque reduction assay was performed as mentioned above.

C[C@@H](NC(=O)[C@@H](CCC(N)=O)NC(=O)[C@@H](C)NC(=O)[C@@H](CCCNC(=N)N)NC(=O)[C@@H](CCC(N)=O)NC(=O)[C@@H](C)NC(=O)[C@@H](CCCNC(=N)N)NC(=O)[C@@H](CCC(N)=O)NC(=O)[C@@H](C)NC(=O)[C@@H](CCC(N)=O)NC(=O)[C@@H](CCCNC(=N)N)NC(=O)[C@@H](C)NC(=O)[C@@H](CCC(N)=O)NC(=O)[C@@H](CCCNC(=N)N)NC(=O)[C@@H](C)NC(=O)[C@@H](CCC(N)=O)NC(=O)[C@@H](C)NC(=O)[C@@H](CCCNC(=N)N)NC(=O)[C@@H](CCC(N)=O)NC(=O)[C@@H](C)NC(=O)[C@@H](CCCNC(=N)N)NC(=O)[C@@H](CO)NC(=O)[C@@H](Cc1ccc(O)cc1)NC(=O)CNC(=O)CNC(=O)CN)C(=O)N[C@H](CCCNC(=N)N)C(=O)N[C@H](CCC(N)=O)C(=O)N[C@H](C)C(=O)N[C@H](CCCNC(=N)N)C(=O)N[C@H](CCC(N)=O)C(=O)O [GGGY-Dp5R] (HELM PEPTIDE1{G.G.G.[dY].[dS].[dR].[dA].[dQ].[dR].[dA].[dQ].[dA].[dR].[dQ].[dA].[dR].[dQ].[dA].[dQ].[dR].[dA].[dQ].[dR].[dA].[dQ].[dA].[dR].[dQ].[dA].[dR].[dQ]}$$$$V2.0; N-terminus and C-terminus assumed)
IC50 [1]: ~75 µM
ability to reduce infection after incubation with trypsin (trypsin): retained its ability to reduce infection

CGGYSGAQGAQAGQAGQAQGAQGAQAGQAGQ (also: biotinylated) [CGGY-p5G]
inhibition of MCMV infection (plaque reduction) (MCMV [2]): did not reduce MCMV infection
binding to mouse fibroblasts in culture (MEF 10.1 cells): did not bind to cells

CGGYSEAQEAQAEQAEQAQEAQEAQAEQAEQ (Peptide CGGY-p5e Synthetic Construct)
inhibition of MCMV infection (plaque reduction) (MCMV [2]): did not reduce MCMV infection

GGGYSRAQRAQARQARQAQRAQRAQARQARQ (CGGY-p5R Peptide Synthetic Construct) [GGGY-p5R]
blocks viral infection better compared to peptide p5 (CGGY-p5) (MCMV [2]; 500 μg/ml screen, FIG. 1(A)): 4 fold

CGGYSKAQKAQAKQAKQAQKAQKAQAKQAKQ [CGGY-p5]
IC50 [1]: ~60 µM
ability to reduce infection after incubation with trypsin (trypsin): only able to reduce viral infection in cells when it had not been treated with trypsin
peptide binding to GAGs expressed in healthy organs or tissues [3]: no evidence of peptide binding to GAGs expressed in healthy organs or tissues

heparin sodium salt
MCMV infection after pre-incubation of the cells with heparin (MCMV [4]; cells pre-incubated with heparin 1 hour prior to virus addition): did not alter MCMV infection
reduction of virus infection after pre-incubation of virus with heparin (MCMV [4]; heparin concentrations >2 μg/mL): > 80%

CGGYSLAQLAQALQALQAQLAQLAQALQALQ (Peptide CGGY-p5L Synthetic Construct)
inhibition of MCMV infection (plaque reduction) (MCMV [2]): did not reduce MCMV infection

MPRRRRIRRRQK (Peptide G2 Synthetic Construct) [reference compound]
reduction in infection (MCMV) (MCMV [2]; 10 μM): ineffective
inhibition of MCMV infection (MCMV [2]; 100 μM): effectively inhibited
